Patent publication US5990173A, “2,3,5-trimethyl-4-hydroxyanilide derivatives, preparation thereof and therapeutical use thereof” (Pierre Fabre Medicament, priority 1995, dated 1999)
Where two headings read alike, the source gives them in different places.

Assays:
Human LDL = assay: Antioxidant activity: oxidation of LDL by CuSO4 (TBARS); type: biochemical; conditions: human LDL oxidized with 10 μM CuSO4, 6 hours, TBARS at 532 nm
plasma cholesterol = assay: Hypocholesterolemic activity in rats on a hypercholesterolemic diet; type: in vivo, rat; conditions: male rats, 4 days, Altromin C 1061 hypercholesterolemic diet, dose which reduces plasma cholesterol by half relative to controls
Experimental: 2) Hypocholesterolemic activity
Male rates (160-180 g) are subjected for 4 days to an Altromin C 1061 hypercholesterolemic diet, and concomitantly treated orally with compounds suspended in a 2% solution of Tween 80 in distilled water.
On day 5, the animals, which have not fasted, are anesthethized with ethyl ether and exsanguinated by drawing blood at the abdominal aorta onto EDTA. The blood is immediately centrifuged and the plasma stored at 4° C.
Plasma cholesterol is then assayed by the CHOD-PAP method (Boehringer-Mannheim Ref. 237574). The median effective dose (ED50) corresponds to the dose which reduces the plasma cholesterol concentration by half relative to control animals.

[1] = system: hepatic microsomal lipids (rat liver microsomes); assay: Antioxidant activity: chemical peroxidation of hepatic microsomal lipids (TBARS); type: biochemical; conditions: Fe3+/ADP/dihydroxyfumaric acid
From the text: a) Chemical peroxidation.
In the presence of Fe^3+ and ADP, dihydroxyfumaric acid undergoes an autoxidation which generates oxygen free radicals. The latter bring about the peroxidation of hepatic microsomal lipids.

[2] = biological target: ACAT (acyl-CoA:cholesterol O-acyl-transferase enzyme); assay: Inhibition of ACAT in vitro; type: biochemical, rat; conditions: technique of H. Chautan et al.
From the text: The compounds were studied for their inhibitory effect on ACAT and hypocholesterolemic effect in rats, on the one hand, and for their antioxidant effect, on the other hand.

[3] = Rattus norvegicus, po, 96 h, read-out: ED50

Row | IC50 (Human LDL) | IC50 [1] | IC50 [2] | Molecule | ED50 (plasma cholesterol; oral) | ED50 (plasma cholesterol; [3])
1 | 4000 nM |  |  | CCCCCCCCCCCCSC(C(=O)Nc1cc(C)c(O)c(C)c1C)c1ccccc1 (single isomer, unassigned; (+)) [Compound 16, (+)-2',3',5'-Trimethyl-4'-hydroxy-α-dodecylthio-α-phenylacetanilide] | 0.15 mg/kg | 
2 | 100000 nM | > 10000 nM |  | CCCCCCCCCCC(C)(C)C(=O)Nc1c(OC)cc(OC)cc1OC [CI 976, reference compound] |  | 8.3 mg/kg
3 |  | 5000 nM | 300 nM | CCCCCCCCCCCCSCC(=O)Nc1cc(C)c(O)c(C)c1C [Compound 2, 2',3',5'-Trimethyl-4'-hydroxy-α-(dodecylthio)acetanilide] |  | > 10 mg/kg
4 |  | > 10000 nM | 310 nM | CCCCCCCCCCCCSC(CC)C(=O)Nc1cc(C)c(O)c(C)c1C (stereo not drawn) [Compound 3, 2',3',5'-Trimethyl-4'-hydroxy-α-(dodecylthio)butyranilide] |  | 4 mg/kg
5 | 10000 nM | 500 nM | 160 nM | CCCCCCCCCCCCSC(CCCC)C(=O)Nc1cc(C)c(O)c(C)c1C (stereo not drawn) [Compound 4, 2',3',5'-Trimethyl-4'-hydroxy-α-(dodecylthio)hexananilide] |  | 0.5 mg/kg
6 |  | 5000 nM | 630 nM | CCCCCCCCCCCCSC(C(=O)Nc1cc(C)c(O)c(C)c1C)C(C)C (stereo not drawn) [Compound 5, 2',3',5'-Trimethyl-4'-hydroxy-α-(dodecylthio)isovaleranilide] |  | 1 mg/kg
7 |  | 300 nM | 110 nM | CCCCCCCCCCCCSC(CCC)C(=O)Nc1cc(C)c(O)c(C)c1C (stereo not drawn) [Compound 6, 2',3',5'-Trimethyl-4'-hydroxy-α-(dodecylthio)valeranilide] |  | 1 mg/kg
8 | 13000 nM | 600 nM |  | CCCCCCCCCCCCSC(C(=O)Nc1cc(C)c(O)c(C)c1C)c1ccccc1 (stereo not drawn) [Compound 7, 2',3',5'-Trimethyl-4'-hydroxy-α-dodecylthio-α-phenylacetanilide] |  | 0.2 mg/kg
9 |  | 3000 nM | 190 nM | CCCCCCCCCCCCSC(C)(C)C(=O)Nc1cc(C)c(O)c(C)c1C [Compound 8, 2',3',5'-Trimethyl-4'-hydroxy-α-(dodecylthio)isobutyranilide] |  | 10 mg/kg
10 |  |  | 1120 nM | Cc1cc(NC(=O)C(C)(C)Sc2ccc(Cl)cc2)c(C)c(C)c1O [Compound 9, 2',3',5'-Trimethyl-4'-hydroxy-α-(p-chlorophenylthio)isobutyranilide] |  | 
11 |  |  | 1100 nM | Cc1cc(NC(=O)C(C)(C)Oc2ccc(Cl)cc2)c(C)c(C)c1O [Compound 11, 2',3',5'-Trimethyl-4'-hydroxy-α-(p-chlorophenoxy)isobutyranilide] |  | 
12 | 3000 nM |  |  | CCCCCCCCCCCC[S+]([O-])C(C)(C)C(=O)Nc1cc(C)c(O)c(C)c1C (stereo not drawn) [Compound 12, 2',3',5'-Trimethyl-4'-hydroxy-α-(dodecylsulfinyl)bobutyranilide] |  | 
13 |  |  |  | CCCCCCCCCCCCSC(C(=O)Nc1cc(C)c(O)c(C)c1C)c1ccc(OC)cc1 (stereo not drawn) [Compound 14, 2',3',5'-Trimethyl-4-hydroxy-α-dodecylthio-α-(p-methoxyphenyl)acetanilide] |  | 1 mg/kg
14 | 30000 nM | > 10000 nM |  | CCCCCCCN(CCCCCSc1nc(-c2ccccc2)c(-c2ccccc2)[nH]1)C(=O)Nc1ccc(F)cc1F [DUP 128, reference compound] |  | 1.1 mg/kg
15 | 10000 nM | 2300 nM |  | Vitamin E [reference compound] |  | 
